The text below walks through data of EP0121972A2, “N-aryl-alpha-amino-carboxamides” (JANSSEN PHARMACEUTICA N.V., priority 1983, dated 1984).

This test relates to multifocal ventricular arrhythmia. In words: Antiarrhythmic effect in dogs with ventricular arrhythmia after coronary artery ligation. The test is classed as in vivo. The settings on record: given intravenously; for minimal effective dose: Canis lupus familiaris, iv, lowest effective dose normalizing the cardial rhythm, about 16 hours after ligation of the anterior descendent branch of the left coronary artery, under neuroleptanalgesia, read-out: Antiarrhythmic effects in dogs LED in mg/kg body weight; for Antiarrhythmic effects in dogs duration: duration of action at the lowest effective dose, coronary-ligated dogs. As to the method:
The compounds of formula (I) and their pharmaceutically acceptable acid addition salts and possible stereochemically isomeric forms thereof show excellent antiarrhythmic properties and as such they are useful in the normalization of irregular cardial rhythms. The antiarrhythmic effect of the compounds of this invention is clearly illustrated in the following experiment in dogs. The test was carried out under neuroleptanalgesia (1 ml per 10 kg body weight of fentanyl (0.4 mg/ml) and droperidol (20 mg/ml)).
The test compounds were given intravenously after a control period of 30 minutes.

Counter-ions that a name gives are not always drawn.

With `CCN(CC)CCCC(C)N1CCC(C(=O)Nc2c(C)cccc2C)(N(C)C)CC1` (stereo not shown) [compound 146], the minimal effective dose turned out to be 1.25 mg/kg and the “Antiarrhythmic effects in dogs duration” value is 45 min.
The corresponding values for `C=CCN1CCC(C(=O)Nc2c(C)cccc2C)(N(C)C)CC1` [compound 162, 4-(dimethylamino)-N-(2,6-dimethylphenyl)-l-(2-propenyl)-4-piperidinecarboxamide] are 0.31 mg/kg and 25 min.
The corresponding values for `CCN(CC)CCN1CCC(C(=O)Nc2c(C)cccc2C)(N(C)C)CC1` [compound 163, 1-[2-(diethylamino)ethyl]-4-(dimethylamino)-N-(2,6-dimethylphenyl)-4-piperidinecarboxamide] are 0.31 mg/kg and 220 min.
On the same counts, the results for `CCN(CC)C1(C(=O)Nc2cc(Cl)ccc2C)CCN(C2CCCC2)CC1` [compound 166, N-(5-chloro-2-methylphenyl)-l-cyclopentyl-4-(diethylamino)-4-piperidinecarboxamide dihydrochloride hemihydrate] are 0.63 mg/kg and 200 min.
For the compound `Cc1cccc(C)c1NC(=O)C1(N(C)C)CCN(CCO)CC1` [compound 167, 4-(dimethylamino)-N-(2,6-dimethylphenyl)-1-(2-hydroxyethyl)-4-piperidinecarboxamide], the minimal effective dose amounted to 0.31 mg/kg and the “Antiarrhythmic effects in dogs duration” value was 220 min.
Turning to `CCN(C)C1(C(=O)Nc2c(C)cccc2C)CCN(C(C)C(N)=O)CC1` (stereo not shown) [compound 174], the minimal effective dose amounted to 1.25 mg/kg and the “Antiarrhythmic effects in dogs duration” value was determined as 120 min.
On the same counts, the results for `CCNC1(C(=O)Nc2c(C)cccc2C)CCN(C(C)C)CC1` [compound 189, N-(2,6-dimethylphenyl)-4-(ethylamino)-l-(l-methylethyl)-4-piperidinecarboxamide] are 0.63 mg/kg and 175 min.
For `Cc1cccc(C)c1NC(=O)C1(N)CCN(C2CCCC2)CC1` [compound 190, 4-amino-l-cyclopentyl-N-(2,6-dimethylphenyl)-4-piperidinecarboxamide], the minimal effective dose came out at 1.25 mg/kg and the “Antiarrhythmic effects in dogs duration” value is 110 min.
Take `Cc1cccc(C)c1NC(=O)C1(N(C)C)CCN(CC(O)CN)CC1` (stereo not shown) [compound 191, 1-(3-amino-2-hydroxypropyl)-4-(dimethylamino)-N-(2,6-dimethylphenyl)-4-piperidinecarboxamide]: the minimal effective dose was found to be 1.25 mg/kg and the “Antiarrhythmic effects in dogs duration” value was 20 min.
The corresponding values for `Cc1cccc(C)c1NC(=O)C1(N(C)C)CCN([C@H]2CC[C@@H](O)C[C@@H]2O)CC1` [compound 202, (+)-[1-(1α,2β,4α)]-1-(2,4-dihydroxycyclohexyl)-4-(dimethylamino)-N-(2,6-dimethylphenyl)-4-piperidinecarboxamide] are 0.31 mg/kg and 5 min.
Consider `CCN1CCC(O)C(N2CCC(C(=O)Nc3c(C)cccc3C)(N(C)C)CC2)C1` (stereo not shown) [compound 212], for which the minimal effective dose came out at 0.31 mg/kg and the “Antiarrhythmic effects in dogs duration” value amounted to 60 min.
